# Results reported in article PMC3138742 (PLoS ONE, 2011).
# “Also recorded” adds a separate entry of the source.
# Legend:
# [1] = test system: NIH3T3-EGFR T790M/L858R cells; assay: Cell proliferation SRB assay; type: cell-based; details: 72 h
# Experimental: The tyrosine kinase activities were determined using enzyme-linked immunosorbant assay (ELISA). The serine/threonine kinase activities were detected by Caliper Mobility Shift Assay on EZ Reader (Caliper Life Sciences, MA) according to the instruction.
# (§1) Cell viability was determined using sulforhodamine B assay. IC50 values were determined based on the results of three independent experiments. […] Whole-cell lysates were assayed for total EGFR and phosphorylation of EGFR by immunoblotting. […] Cell viability was determined using sulforhodamine B assay.
# NIH3T3 parental cells = assay: Cell proliferation SRB assay; type: cell-based; details: 72 h, compared with NIH3T3-EGFR T790M/L858R
# Source text: SK-OV-3, BT474, MDA-MB-468, Calu-3, A-549, NCI-H23, NCI-H1975 and NIH3T3 cells were obtained from the American Type Culture Collection (Rockville, MD). HO-8910 cells were obtained from the cell bank of the Chinese Academy of Sciences. MCF-7 cells were obtained from the Japanese Foundation of Cancer Research. NIH3T3 cells that overexpressed EGFR T790M/L858R mutant (NIH3T3-EGFR T790M/L858R) were constructed and maintained in our laboratory. All cell lines were maintained in strict accordance with the supplier's instructions and established procedures.
# as §1, with “immunoblotting. A representative anti-GAPDH immunoblot is shown as a loading control.” for “immunoblotting.”
# Cell proliferation was evaluated using the SRB (Sulforhodamine B) assay as previously described. Briefly, cells were seeded into 96-well plates and grown for 24 h. […] After cells were air-dried, protein-bound dye was dissolved in 150 μL of 10 mmol/L Tris base for 5 min and measured at 515 nm using a multiwell spectrophotometer (VERSAmax, Molecular Devices). […] The IC50 value was obtained by the Logit method and was determined from the results of at least 3 independent tests.
# MDA-MB-468 cells = assay: Cell proliferation SRB assay; type: cell-based; details: Homo sapiens, MDA-MB-468, 72 h, range given for four cell lines together, read-out: IC50 (antiproliferative)
# Experimental: (§2) Cell proliferation was evaluated using the SRB (Sulforhodamine B) assay as previously described. Briefly, cells were seeded into 96-well plates and grown for 24 h. […] The medium remained unchanged until the completion of the experiment. The cells were then fixed with 10% precooled trichloroacetic acid (TCA) for 1 h at 4°C and stained for 15 min at room temperature with 100 μL of 4 mg/mL SRB solution (Sigma) in 1% acetic acid. The SRB was then removed, and the cells were quickly rinsed five times with 1% acetic acid. After cells were air-dried, protein-bound dye was dissolved in 150 μL of 10 mmol/L Tris base for 5 min and measured at 515 nm using a multiwell spectrophotometer (VERSAmax, Molecular Devices). […] The IC50 value was obtained by the Logit method and was determined from the results of at least 3 independent tests.
# NCI-H23 cells = assay: Cell proliferation SRB assay; type: cell-based; details: Homo sapiens, NCI-H23, 72 h, range given for four cell lines together, read-out: IC50 (antiproliferative)
# Experimental: as §2
# SK-OV-3 cells = assay: Cell proliferation SRB assay; type: cell-based; details: Homo sapiens, SK-OV-3, 72 h, range given for four cell lines together, read-out: IC50 (antiproliferative)
# Experimental: as §2
# A549 cells [2] = assay: Cell proliferation SRB assay; type: cell-based; details: Homo sapiens, A549, 72 h, range given for four cell lines together, read-out: IC50 (antiproliferative)
# A549 cells [3] = assay: Anchorage-independent growth on soft agar; type: cell-based, human; details: two weeks
# Experimental: The culture was maintained at 37°C in a 5% CO2 atmosphere for two weeks. The average colony number was calculated and colonies were photographed. […] Anchorage-independent cell transformation assay. Cell transformation was detected in SK-OV-3 and A549 cells, respectively. […] The culture were maintained in a 37°C, 5% CO2 incubator for 1-2 weeks, and the cell colonies were scored using a microscope and the Image-Pro PLUS computer software program (Media Cybernetics, Silver Spring, MD).
# [4] = test system: SK-OV-3 cells transfected with ErbB2 siRNA; assay: SRB assay after ErbB2 siRNA transfection; type: cell-based, human; details: SK-OV-3, ErbB2 siRNA 50 nmol/L, AST1306 6.25 µmol/L (p<0.05) or 12.5 µmol/L (p<0.01)
# Source text: (§3) Small interfering RNA (siRNA) against EGFR or ErbB2, as well as control siRNA, were designed and synthesized by Shanghai GenePharma Co. Ltd. One pair of ErbB2 siRNA (sequence: 5′ […] 3′), and two pairs of EGFR siRNA (#1 sequence: 5′ […] 3′; #2 sequence: 5′ […] 3′) were applied in this study. Different kind of siRNA (final concentration: 50 nmol/L) was transfected to SK-OV-3 cells with oligofectamine reagent (Invitrogen) according to the manufacturer's instruction.
# [5] = test system: SK-OV-3 cells transfected with EGFR siRNA; assay: SRB assay after EGFR siRNA transfection; type: cell-based, human; details: SK-OV-3, two independent pairs of EGFR siRNAs
# Source text: as §3
# A549 xenograft = assay: Human tumor xenograft model, tumor growth; type: in vivo; details: nude mice, p.o. twice daily
# Experimental: (§4) The mice were housed and maintained under specific-pathogen free (SPF) conditions. All animal procedures were performed according to the protocol approved by the Institutional Animal Care and Use Committee at Shanghai Institute of Materia Medica, Chinese Academy of Sciences (SIMM-AE-DJ-2010-01). Under sterile conditions, well-developed tumors were cut into 1-mm^3 fragments and transplanted s.c. into the right flank of nude mice using a trocar. When the tumor reached a volume reached 100 to 200 mm^3, the mice were randomly assigned into control and treatment groups. […] The sizes of the tumors were measured twice per week using microcalipers. The tumor volume (V) was calculated as follows: V = (length×width^2)/2. The body weights of the mice were observed simultaneously.
# Calu-3 xenograft = assay: Human tumor xenograft model, tumor growth; type: in vivo; details: nude mice, p.o. twice daily
# Experimental: as §4
# HO-8910 xenograft = assay: Human tumor xenograft model, tumor growth; type: in vivo; details: nude mice, p.o. twice daily
# Experimental: as §4
# SK-OV-3 xenograft = assay: Human tumor xenograft model, tumor growth; type: in vivo; details: nude mice, p.o. twice daily
# Experimental: as §4
# [6] = test system: EGFR and ErbB2 phosphorylation in SK-OV-3 xenograft tumors; assay: Pharmacodynamic effect in tumor extracts (Western blot); type: in vivo, nude mice; details: SK-OV-3 tumors, single dose 100 mg/kg
# Experimental: Tumors were harvested at indicated times (n = 3 per time point) after treatment, immediately frozen in liquid nitrogen, and then homogenized in 500 µL protein extraction solutions (SBS Genetech, Shanghai, China). Tumor extracts were subjected to SDS-PAGE followed by immunoblotting.
# Body weights of the nude mice were measured concurrently (B). […] Tumors were harvested at the indicated times after treatment and immediately frozen in liquid nitrogen. Western blot analysis was performed to determine the levels of phosphorylated EGFR and ErbB2.
# [7] = test system: FVB-2/N^neu transgenic mouse model; assay: Spontaneous breast cancer in FVB-2/N^neu transgenic mouse, tumor growth; type: in vivo; details: FVB-2/N^neu mice
# Source text: Thirty eight- to forty four-week-old female FVB/N^neu mice were obtained from Shanghai Laboratory Animal Center. The animals were housed under specific pathogen-free conditions.
smiles,measurement,setting,value
C=CC(=O)Nc1ccc2ncnc(Nc3ccc(OCc4cccc(F)c4)c(Cl)c3)c2c1 [AST1306],inhibition of cell growth,[1],"significant, concentration-dependent inhibition"
same,inhibition of cell growth,NIH3T3 parental cells,much less potent
same,IC50,MDA-MB-468 cells,6.2 to 7.5 µM
same,IC50,NCI-H23 cells,6.2 to 7.5 µM
same,IC50,SK-OV-3 cells,6.2 to 7.5 µM
same,IC50,A549 cells [2],6.2 to 7.5 µM
same,anchorage-independent growth on soft agar,A549 cells [3],dramatically inhibit the growth
same,sensitivity to antiproliferative effect after ErbB2 knockdown,[4],significantly more resistant
same,antiproliferative activity after EGFR knockdown,[5],did not significantly affect
same,tumor growth,A549 xenograft,only slightly suppressed tumor growth
same,tumor growth,Calu-3 xenograft,dramatic suppression of tumor growth
same,tumor growth,HO-8910 xenograft,only slightly suppressed tumor growth
same,tumor growth,SK-OV-3 xenograft,dramatic suppression of tumor growth; also recorded: more efficacious than lapatinib
same,tumors after treatment for 7 d,SK-OV-3 xenograft; 7 d,tumors almost completely disappeared
same,time to evident inhibition of EGFR and ErbB2 activation in tumors,[6],≤ 2 h
same,tumor growth,[7]; oral twice daily for 3 wk,dramatic suppression of tumor growth
same,tumors after treatment for 11 d,"[7]; oral twice daily, 11 d",tumors almost completely disappeared
